Legend:
human M5 receptors = target: T1, human M5 receptors (Homo sapiens, UniProt P08912); assay: hM5 PAM calcium mobilization assay; format: cell-based; settings: for improvement in hM5 PAM EC50 over the naked phenylsulfonamide: versus 6a
T1 sequence (P08912 1-532): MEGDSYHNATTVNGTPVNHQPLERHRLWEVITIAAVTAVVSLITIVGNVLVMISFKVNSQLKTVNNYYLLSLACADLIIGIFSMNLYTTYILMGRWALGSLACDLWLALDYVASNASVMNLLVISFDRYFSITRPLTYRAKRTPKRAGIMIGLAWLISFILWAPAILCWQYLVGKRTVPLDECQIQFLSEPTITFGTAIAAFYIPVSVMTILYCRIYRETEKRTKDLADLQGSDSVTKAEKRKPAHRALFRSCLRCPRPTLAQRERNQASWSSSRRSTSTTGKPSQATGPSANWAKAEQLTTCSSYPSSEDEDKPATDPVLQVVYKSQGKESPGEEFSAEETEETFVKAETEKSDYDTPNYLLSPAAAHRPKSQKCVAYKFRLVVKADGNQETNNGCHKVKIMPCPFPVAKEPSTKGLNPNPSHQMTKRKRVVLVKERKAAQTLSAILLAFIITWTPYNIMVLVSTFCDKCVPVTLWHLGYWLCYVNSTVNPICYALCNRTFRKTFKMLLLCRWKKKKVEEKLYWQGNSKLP

hM5 receptor [1] = target: T2, hM5 receptor (Homo sapiens, UniProt P08912); assay: ACh CRC fold shift, calcium mobilization; format: cell-based; settings: compound at 10 μM; leftward shift in ACh potency at hM5; average ± SEM, n = 3–4
T2 sequence (P08912 1-532): T1 sequence (P08912 1-532)

[2] = in vitro metabolite identification; format: in vitro ADME
hM3 = hM3 (Homo sapiens, UniProt P20309); assay: muscarinic selectivity calcium mobilization, hM3; format: cell-based; settings: hM5 versus hM3 PAM potency
[3] = hepatic microsomal intrinsic clearance, rat; format: in vitro ADME
hM5 receptor [4] = target: T2, hM5 receptor; assay: [3H]NMS competition binding, hM5 CHO membranes; settings: 0.3 nM [3H]NMS
[5] = hepatic microsomal intrinsic clearance, human; format: in vitro ADME
hM4 = target: T3, hM4 (Homo sapiens, UniProt P08173); assay: muscarinic selectivity calcium mobilization, hM4/Gqi5; format: cell-based; settings: CHO hM4/Gqi5
T3 sequence (P08173 1-479): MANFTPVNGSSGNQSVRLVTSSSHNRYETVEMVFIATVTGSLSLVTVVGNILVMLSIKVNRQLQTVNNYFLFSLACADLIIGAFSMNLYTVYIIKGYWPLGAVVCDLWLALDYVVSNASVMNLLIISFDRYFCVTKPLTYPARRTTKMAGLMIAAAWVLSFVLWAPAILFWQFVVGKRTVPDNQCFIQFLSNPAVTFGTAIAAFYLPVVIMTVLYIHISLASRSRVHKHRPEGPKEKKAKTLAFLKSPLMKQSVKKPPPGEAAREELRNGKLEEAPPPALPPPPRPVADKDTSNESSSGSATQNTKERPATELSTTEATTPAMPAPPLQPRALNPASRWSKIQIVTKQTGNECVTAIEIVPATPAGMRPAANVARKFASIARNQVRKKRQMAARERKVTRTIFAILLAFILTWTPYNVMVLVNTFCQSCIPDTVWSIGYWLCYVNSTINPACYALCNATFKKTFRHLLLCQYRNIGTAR

hM1 = target: T4, hM1 (Homo sapiens, UniProt P11229); assay: muscarinic selectivity calcium mobilization, hM1; format: cell-based; settings: hM5 versus hM1 PAM potency
T4 sequence (P11229 1-460): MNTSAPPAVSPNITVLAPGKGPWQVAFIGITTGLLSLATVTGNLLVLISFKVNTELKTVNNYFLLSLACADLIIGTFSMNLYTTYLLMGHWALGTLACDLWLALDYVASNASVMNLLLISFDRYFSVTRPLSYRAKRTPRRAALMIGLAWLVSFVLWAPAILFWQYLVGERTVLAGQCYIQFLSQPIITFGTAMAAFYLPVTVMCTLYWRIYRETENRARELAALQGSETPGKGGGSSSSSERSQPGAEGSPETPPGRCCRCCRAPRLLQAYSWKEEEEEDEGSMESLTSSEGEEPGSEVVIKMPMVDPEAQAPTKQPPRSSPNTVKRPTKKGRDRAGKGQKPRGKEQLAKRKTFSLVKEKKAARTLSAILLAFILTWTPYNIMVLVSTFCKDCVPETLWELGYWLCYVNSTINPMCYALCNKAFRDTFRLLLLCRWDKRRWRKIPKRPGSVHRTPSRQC

hM2 = target: T5, hM2 (Homo sapiens, UniProt P08172); assay: muscarinic selectivity calcium mobilization, hM2/Gqi5; format: cell-based; settings: CHO hM2/Gqi5
T5 sequence (P08172 1-466): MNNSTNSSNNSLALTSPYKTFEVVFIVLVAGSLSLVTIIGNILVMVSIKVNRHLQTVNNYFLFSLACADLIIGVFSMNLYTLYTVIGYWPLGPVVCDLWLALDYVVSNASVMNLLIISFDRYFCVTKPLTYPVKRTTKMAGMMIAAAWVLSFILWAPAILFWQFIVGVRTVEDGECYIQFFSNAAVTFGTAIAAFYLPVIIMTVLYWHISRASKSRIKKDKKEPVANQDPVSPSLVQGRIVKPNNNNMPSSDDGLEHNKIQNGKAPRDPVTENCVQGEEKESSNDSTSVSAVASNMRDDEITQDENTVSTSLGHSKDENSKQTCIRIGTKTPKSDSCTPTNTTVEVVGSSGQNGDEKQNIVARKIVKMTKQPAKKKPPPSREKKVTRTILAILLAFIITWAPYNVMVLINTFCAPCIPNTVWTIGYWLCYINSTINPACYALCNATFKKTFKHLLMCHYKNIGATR

hM3, sequence (P20309 whole entry): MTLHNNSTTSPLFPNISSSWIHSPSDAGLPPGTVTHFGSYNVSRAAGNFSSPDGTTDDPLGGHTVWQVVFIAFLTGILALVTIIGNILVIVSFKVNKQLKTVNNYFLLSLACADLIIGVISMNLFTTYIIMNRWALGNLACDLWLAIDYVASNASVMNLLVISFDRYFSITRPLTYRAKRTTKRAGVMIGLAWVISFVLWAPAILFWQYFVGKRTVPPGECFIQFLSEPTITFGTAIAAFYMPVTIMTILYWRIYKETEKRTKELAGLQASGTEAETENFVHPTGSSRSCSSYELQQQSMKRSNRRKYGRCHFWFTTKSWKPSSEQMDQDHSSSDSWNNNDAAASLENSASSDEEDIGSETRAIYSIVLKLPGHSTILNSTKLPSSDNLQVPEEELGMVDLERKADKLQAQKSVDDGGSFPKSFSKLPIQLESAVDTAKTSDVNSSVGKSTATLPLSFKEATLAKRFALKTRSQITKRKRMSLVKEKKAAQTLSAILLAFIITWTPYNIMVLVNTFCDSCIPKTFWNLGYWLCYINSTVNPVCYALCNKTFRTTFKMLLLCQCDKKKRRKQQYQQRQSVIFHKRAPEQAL

CCN(Cc1ccccc1)C(=O)C1CCN(S(=O)(=O)c2ccc3occc3c2)CC1 [6o]
improvement in hM5 PAM EC50 over the naked phenylsulfonamide (human M5 receptors): approximately 3 fold

CCN(Cc1ccccc1)C(=O)C1CCN(S(=O)(=O)c2ccc3[nH]ncc3c2)CC1 [6p]
improvement in hM5 PAM EC50 over the naked phenylsulfonamide (human M5 receptors): approximately 3 fold

CCN(Cc1ccccc1)C(=O)C1CCN(S(=O)(=O)c2ccc3cn[nH]c3c2)CC1 [6q]
improvement in hM5 PAM EC50 over the naked phenylsulfonamide (human M5 receptors): approximately 3 fold

CCN(C(=O)C1CCN(S(=O)(=O)c2ccc(OC)cc2)CC1)[C@H](C)c1ccccc1 [7b]
improvement in hM5 potency relative to des-methyl analog 6b (human M5 receptors): 3 fold | ACh fold shift (hM5 receptor [1]): 7- to 12 fold

CCN(C(=O)C1CCN(S(=O)(=O)c2ccc3[nH]ncc3c2)CC1)[C@H](C)c1ccccc1 [7g]
ACh fold shift (hM5 receptor [1]): 7- to 12 fold | primary site of metabolism [2]: N-ethyl moiety as the primary site of metabolism

CCN(Cc1ccccc1C(F)(F)F)C(=O)C1CCN(S(=O)(=O)c2ccc3cn[nH]c3c2)CC1 [8j]
ACh fold shift (hM5 receptor [1]): 7- to 12 fold

CCN(Cc1ccccc1C(F)(F)F)C(=O)C1CCN(S(=O)(=O)c2ccc3[nH]ncc3c2)CC1 [8n, 1-((1H-Indazol-5-yl)sulfonyl)-N-ethyl-N-(2-(trifluoromethyl)benzyl)piperidine-4-carboxamide]
selectivity over hM3 (hM3): greater than 10 fold | hepatic microsomal intrinsic clearance CLint ([3]; rat): 2600 mL min^–1 kg^–1 | predicted hepatic clearance CLhep ([3]; rat): 68 mL min^–1 kg^–1 | CLint scaled at 1 µM ([3]; rat, liver microsomes, pH 7.4): 2600 mL/min/kg | predicted CLhep (mL/min/kg) ([3]; rat, well-stirred model from CLint, not corrected for fu plasma): rat: 68 mL/min/kg | hM5 PAM potency relative to des-CF3 congener 6p (human M5 receptors; more potent): 8 fold | effect on [3H]NMS binding (in words) (hM5 receptor [4]): no inhibitory effect | hepatic microsomal intrinsic clearance CLint [5]: 540 mL min^–1 kg^–1 | predicted hepatic clearance CLhep [5]: 20 mL min^–1 kg^–1 | CLint scaled at 1 µM ([5]; liver microsomes, pH 7.4): 540 mL/min/kg | predicted CLhep (mL/min/kg) ([5]; well-stirred model from CLint, not corrected for fu plasma): human: 20 mL/min/kg | ACh fold shift (hM5 receptor [1]): 7- to 12 fold | activity at hM4 (in words) (hM4): no activity | selectivity over hM1 (hM1): greater than 10 fold | activity at hM2 (in words) (hM2): no activity

O=C(C1CCN(S(=O)(=O)c2ccc3[nH]ncc3c2)CC1)N(Cc1ccccc1C(F)(F)F)C1CC1 [9d]
change of intrinsic microsomal clearance (in words) ([3]; relative to the other analogs (rat CLint > 500)): reduce intrinsic microsomal clearance by an order of magnitude | activity at hM5 (in words) (human M5 receptors; PAM, calcium mobilization): complete absence of activity
